# Assay: Rapid solubility test of pure reference compounds in 7 solvents
# Text: Determination of the small molecule content in a complex plant matrix depends on the understanding of minimum solubility in the chosen extraction solvent. […] Often, tests on mixture are hardly reproducible on pure compounds if this aspect is not routinely considered in the workflow. We performed a general testing of best solvent systems to compare a wide range of small molecules of interest to understand the limitations of general approaches within a complex plant matrix such as Nicotiana.
# For each of the 29 reference compounds, 2 mg was weighed into a 15 mL glass tube and dissolved in the minimum amount of the test solvent by gradually adding the solvent with a micropipette until complete dissolution or to a final volume of 10.0 mL. Seven solvents with polarities from nonpolar to polar were chosen for the test: hexane (C6H14), CH2Cl2, CH2Cl2/MeOH (4:1, v/v), EtOH, MeOH, MeOH/H2O (7:3, v/v), and H2O. The consumed solvents and their volumes were recorded for each reference compound.
# [1] = solvent MeOH/H2O (7:3, v/v); room temperature (21–23 °C)
# [2] = solvent ethanol; room temperature (21–23 °C)
# [3] = solvent methanol; room temperature (21–23 °C)
# [4] = solvent water; room temperature (21–23 °C)
# [5] = CH2Cl2/MeOH (4:1, v/v), 22 °C, organic solvent or mixture, thermodynamic from solid, Solubility in CH2Cl2/MeOH (4:1), solvent CH2Cl2/MeOH (4:1, v/v); room temperature (21–23 °C)
# [6] = MeOH/H2O (7:3, v/v), 22 °C, organic solvent or mixture, thermodynamic from solid, Solubility in MeOH/H2O (7:3), solvent MeOH/H2O (7:3, v/v); room temperature (21–23 °C)
# [7] = dichloromethane (CH2Cl2), 22 °C, organic solvent or mixture, thermodynamic from solid, Solubility in CH2Cl2, solvent dichloromethane (CH2Cl2); room temperature (21–23 °C)
# [8] = ethanol, 22 °C, organic solvent or mixture, thermodynamic from solid, Solubility in EtOH, solvent ethanol; room temperature (21–23 °C)
# [9] = hexane (C6H14), 22 °C, organic solvent or mixture, thermodynamic from solid, Solubility in C6H14, solvent hexane (C6H14); room temperature (21–23 °C); 2 mg compound, solvent added until dissolution or 10.0 mL
# [10] = methanol, 22 °C, organic solvent or mixture, thermodynamic from solid, Solubility in MeOH, solvent methanol; room temperature (21–23 °C)
# [11] = water, 22 °C, thermodynamic from solid, Solubility in H2O, solvent water; room temperature (21–23 °C)
# [12] = 22 °C, organic solvent or mixture, thermodynamic from solid, Solubility in C6H14, solvent hexane (C6H14); room temperature (21–23 °C); 2 mg compound, solvent added until dissolution or 10.0 mL
# [13] = 22 °C, organic solvent or mixture, thermodynamic from solid, Solubility in CH2Cl2, solvent dichloromethane (CH2Cl2); room temperature (21–23 °C)
# [14] = 22 °C, organic solvent or mixture, thermodynamic from solid, Solubility in EtOH, solvent ethanol; room temperature (21–23 °C)
# [15] = 22 °C, organic solvent or mixture, thermodynamic from solid, Solubility in MeOH, solvent methanol; room temperature (21–23 °C)
# [16] = 22 °C, organic solvent or mixture, thermodynamic from solid, Solubility in MeOH/H2O (7:3), solvent MeOH/H2O (7:3, v/v); room temperature (21–23 °C)
# [17] = 22 °C, water, thermodynamic from solid, Solubility in H2O, solvent water; room temperature (21–23 °C)
# [18] = solvent CH2Cl2/MeOH (4:1, v/v); room temperature (21–23 °C)
# [19] = solvent dichloromethane (CH2Cl2); room temperature (21–23 °C)
# [20] = solvent hexane (C6H14); room temperature (21–23 °C); 2 mg compound, solvent added until dissolution or 10.0 mL
# [21] = 22 °C, organic solvent or mixture, thermodynamic from solid, Solubility in C6H14
# [22] = 22 °C, organic solvent or mixture, thermodynamic from solid, Solubility in CH2Cl2
# [23] = 22 °C, organic solvent or mixture, thermodynamic from solid, Solubility in EtOH
# [24] = 22 °C, organic solvent or mixture, thermodynamic from solid, Solubility in MeOH
# [25] = 22 °C, organic solvent or mixture, thermodynamic from solid, Solubility in MeOH/H2O (7:3)
# [26] = 22 °C, water, thermodynamic from solid, Solubility in H2O
molecule,measurement,setting,value
C=CC(=C)CCCC(C)CCCC(C)CCCC(C)C (stereo not drawn) [Neophytadiene],Solubility in MeOH/H2O (7:3),[1],"NS (not soluble, insoluble in the solvent at the tested concentration range (0.19–558 mg/mL))"
same,Solubility in EtOH,[2],57.5 mg/mL
same,Solubility in MeOH,[3],4.08 mg/mL
same,Solubility in H2O,[4],"NS (not soluble, insoluble in the solvent at the tested concentration range (0.19–558 mg/mL))"
CC(C)=CCC/C(C)=C/CC/C(C)=C/CO [Farnesol],solubility,[5],348 mg/mL
same,solubility,[6],0.75 mg/mL
same,solubility,[7],382 mg/mL
same,solubility,[8],376 mg/mL
same,solubility,[9],400 mg/mL
same,solubility,[10],466 mg/mL
same,solubility,[11],< 0.19 mg/mL
C1=CCC(c2cccnc2)NC1 (stereo not drawn) [Anatabine],solubility,[12],217 mg/mL
same,solubility,[13],442 mg/mL
same,solubility,"22 °C, organic solvent or mixture, thermodynamic from solid, Solubility in CH2Cl2/MeOH (4:1), solvent CH2Cl2/MeOH (4:1, v/v); room temperature (21–23 °C)",512 mg/mL
same,solubility,[14],490 mg/mL
same,solubility,[15],444 mg/mL
same,solubility,[16],193 mg/mL
same,solubility,[17],100 mg/mL
C=C[C@](C)(O)CC[C@@H]1[C@@]2(C)CCCC(C)(C)[C@@H]2CC[C@@]1(C)O [Sclareol],solubility,[5],219 mg/mL
same,solubility,[6],3.17 mg/mL
same,solubility,[7],58 mg/mL
same,solubility,[8],75.7 mg/mL
same,solubility,[9],3.76 mg/mL
same,solubility,[10],65.7 mg/mL
same,solubility,[11],< 0.19 mg/mL
Megastigmatrienone,Solubility in CH2Cl2/MeOH (4:1),[18],212 mg/mL
same,Solubility in MeOH/H2O (7:3),[1],38.8 mg/mL
same,Solubility in CH2Cl2,[19],215 mg/mL
same,Solubility in EtOH,[2],197 mg/mL
same,Solubility in C6H14,[20],1.1 mg/mL
same,Solubility in MeOH,[3],228 mg/mL
same,Solubility in H2O,[4],"NS (not soluble, insoluble in the solvent at the tested concentration range (0.19–558 mg/mL))"
CC(C)=CCC/C(C)=C/CC/C(C)=C/CC/C(C)=C/CC/C(C)=C/CC/C(C)=C/CC/C(C)=C/CC/C(C)=C/CC/C(C)=C/CO [Solanesol],Solubility in CH2Cl2/MeOH (4:1),[18],203 mg/mL
same,Solubility in MeOH/H2O (7:3),[1],"NS (not soluble, insoluble in the solvent at the tested concentration range (0.19–558 mg/mL))"
same,Solubility in CH2Cl2,[19],235 mg/mL
same,Solubility in EtOH,[2],3.31 mg/mL
same,Solubility in C6H14,[20],42.0 mg/mL
same,Solubility in MeOH,[3],0.51 mg/mL
same,Solubility in H2O,[4],"NS (not soluble, insoluble in the solvent at the tested concentration range (0.19–558 mg/mL))"
CN1C(=O)CC[C@H]1c1cccnc1 [Cotinine],solubility,[21],< 0.19 mg/mL
same,solubility,[5],208 mg/mL
same,solubility,[6],139 mg/mL
same,solubility,[7],203 mg/mL
same,solubility,[8],190 mg/mL
same,solubility,[10],235 mg/mL
same,solubility,[11],145 mg/mL
CC1=C(/C=C/C(C)=C/C=C/C(C)=C/C=C/C=C(C)/C=C/C=C(C)/C=C/C2=C(C)C[C@@H](O)CC2(C)C)C(C)(C)C[C@H](O)C1 [Zeaxanthin],solubility,[12],< 0.19 mg/mL
same,solubility,[13],0.29 mg/mL
same,solubility,[14],< 0.19 mg/mL
same,solubility,[15],< 0.19 mg/mL
same,solubility,[16],< 0.19 mg/mL
same,solubility,[17],< 0.19 mg/mL
same,Solubility in CH2Cl2/MeOH (4:1),[18],0.49 mg/mL
same,Solubility in CH2Cl2/MeOH (4:1),"solvent CH2Cl2/MeOH (4:1, v/v); room temperature (21–23 °C); listed as zeaxanthin",< 100 mg/mL
Phytol,Solubility in MeOH/H2O (7:3),[1],0.32 mg/mL
same,Solubility in H2O,[4],"NS (not soluble, insoluble in the solvent at the tested concentration range (0.19–558 mg/mL))"
C=C1CC[C@H](O)C/C1=C/C=C1\CCC[C@]2(C)[C@@H]([C@H](C)CCCC(C)C)CC[C@@H]12 [Vitamin D3],solubility,[21],104 mg/mL
same,solubility,[22],100 mg/mL
same,solubility,"22 °C, organic solvent or mixture, thermodynamic from solid, Solubility in CH2Cl2/MeOH (4:1)",212 mg/mL
same,solubility,[23],74.3 mg/mL
same,solubility,[24],113 mg/mL
same,solubility,[25],< 0.19 mg/mL
same,solubility,[26],< 0.19 mg/mL
C/C(=C\CNc1ncnc2[nH]cnc12)CO [Zeatin],solubility,[21],< 0.19 mg/mL
same,solubility,[22],< 0.19 mg/mL
same,solubility,[23],0.56 mg/mL
same,solubility,[24],2.28 mg/mL
same,solubility,[25],3.03 mg/mL
same,solubility,[26],< 0.19 mg/mL
